Measured values as given in patent US20110112184A1, “COMPOUNDS WITH GLYCIDIC STRUCTURE ACTIVE IN THE THERAPY OF SYSTEMIC AND LOCAL INFLAMMATION” (priority 2008, published 2011).

system: HT29 cells; assay: LPS-induced IL-8 production by HT29 intestinal epithelial cells (ELISA); assay type: cell-based, human; details: compounds 50 mg/L to 5 μg/L for 18 h, then LPS (Salmonella enterica abortus equi) 1 μg/ml 6 h
Experimental: FIG. 2A. LPS-induced IL-8 production by HT29 cells in the absence or presence of the indicated concentrations of compound (c) 4, 5, 6, 7, 4′, 14.
The effect of the compounds on the release of IL-8 or KC was tested upon stimulation of intestinal epithelial cells (IEC) with LPS from Salmonella enterica abortus equi. The human IEC line HT29 was used for these experiments. Cells were cultured for 18 h in medium alone or in medium additioned with different concentrations of compounds 4, 5, 6, 7, 4′ and 14 (from 50 mg/L to 5 μg/L). Then, cells were stimulated for 6 h with LPS (1 μg/ml). […] Similar experiments were performed on a human pneumocyte type II cell line (A549) using compound 4 and LPS from Pseudomonas aeruginosa.

Structure (SMILES)	production of IL-8 induced by LPS
CN(C)c1cccc2c(S(=O)(=O)NCC[C@H]3O[C@H](CO)[C@H](O)[C@H](O)[C@H]3O)cccc12 [4′, 5-(Dimethylamino)-N-[2′-(α-D-galactopyranosyl)ethyl]-1-naphthalenesulfonamide]	significantly inhibited
O=S(=O)(NCC[C@H]1O[C@H](CO)[C@@H](O)[C@H](O)[C@H]1O)c1cccc2ccccc12 [Compound 5]	significantly inhibited
O=C(NCC[C@H]1O[C@H](CO)[C@@H](O)[C@H](O)[C@H]1O)c1cccc2ccccc12 [Compound 6, N-[2′-(α-D-Glucopyranosyl)ethyl]-1-naphtalenecarboxyamide]	significantly inhibited
CCCCN(CCCC)c1cccc2c(S(=O)(=O)NCC[C@H]3O[C@H](CO)[C@@H](O)[C@H](O)[C@H]3O)cccc12 [Compound 7, 5-(Dibutylamino)-N-[2′-(α-D-glucopyranosyl)ethyl]-1-naphthalenesulfonamide]	significantly inhibited
CN(C)c1cccc2c(S(=O)(=O)NCCCC[C@H]3O[C@H](CO)[C@@H](O)[C@H](O)[C@H]3O)cccc12 [Compound 14, 5-(Dimethylamino)-N-[4′-(α-D-glucopyranosyl)butyl]-1-naphthalenesulfonamide]	significantly inhibited
